# Data taken from patent US12653901B2, “Anti-EDB antibodies and antibody-drug conjugates” (Pfizer Inc., priority 2016, dated 2026).
# “Also recorded” adds a separate entry of the source. Where two headings read alike, the source gives them in different places. Where a SMILES comes first, the peptide text is derived from it. [ ]: non-standard residue; d: D form. The star is where a group is joined. Dolaproine = CO[C@@H]([C@@H]1CCCN1)[C@@H](C)C(=O)O; Dil = CC[C@H](C)[C@H](NC)[C@@H](CC(=O)O)OC; Doe = c1ccc(C[C@H](N*)c2nccs2)cc1; Aib = CC(C)(N)C(=O)O
# Legend:
# WI38-VA13 cells = assay: In vitro cytotoxicity, WI38-VA13; assay type: cell-based, human; conditions: for IC50: Homo sapiens
# Description: (§1) Proliferating WI38-VA13 or HT29 cells were harvested from culture flasks with non-enzymatic cell dissociation buffer and cultured overnight in 96-well plates (Corning) at 1000 cells/well in a humidified chamber (37° C., 5% CO2). The next day, cells were treated with EDB ADCs or isotype control non-EDB-binding ADCs by adding 50 μl of 3× stocks in duplicate at 10 concentrations. In some experiments, cells were plated at 1500 cells/well and treated the same day. Cells were then incubated with EDB ADCs or isotype control non-EDB-binding ADCs for four days. On harvest day, 50 μl of Cell Titer Glo (Promega) was added to the cells and incubated 0.5 hours at room temperature. Luminescence was measured on a Victor plate reader (Perkin Elmer, Waltham, MA). Relative cell viability was determined as a percentage of untreated control wells. IC50 values were calculated using four-parameter logistic model #203 with XLfit v4.2 (IDBS).
# HT29 cells = assay: In vitro cytotoxicity, HT29; assay type: cell-based, human; conditions: for IC50: Homo sapiens; for Avg IC50: HT29 (EDB+ FN negative), four days, ng/ml of antibody
# Description: as §1
# EMT6 syngeneic tumors = assay: Immune response in treated EMT6 syngeneic tumors; assay type: in vivo, mouse
# PDX-PAX-12534 = assay: In vivo efficacy, PDX-PAX-12534 pancreatic PDX; parameters: species or system mouse; conditions: 0.3, 1 and 3 mg/kg
# Text: (§2) To generate PDX models, tumors were collected from donor animals and tumor fragments approximately 3×3 mm were implanted subcutaneously into the flank of female athymic nude mice (for PDX-NSX-11122 model) or NOD SCID mice (for PDX-PAX-13565 and PDX-PAX-12534 models) by using a 10 gage trocar. When average tumor volume reached approximately 160 to 260 mm^3 the mice were randomized into treatment groups, with 7-10 mice in each group. ADCs or vehicle (PBS) dosing regime and administration route as well as tumor measurement procedures are the same as described above for CLX models. […] Tumor growth inhibition is plotted as an average of tumor size±SEM.
# PDX-PAX-13565 = assay: In vivo efficacy, PDX-PAX-13565 pancreatic PDX; parameters: species or system mouse; conditions: 0.3, 1 and 3 mg/kg
# Text: as §2
# PDX-NSX-11122 = assay: In vivo efficacy, PDX-NSX-11122 NSCLC PDX; parameters: species or system mouse
# Text: as §2
# HT29 = assay: In vivo efficacy, HT29 colon CLX; parameters: species or system mouse; conditions: 3 mg/kg
# Text: (§3) To generate CLX models, 8×10^6 to 10×10^6 cells of H-1975, HT29, or Ramos tumor lines were implanted into female athymic nude mice subcutaneously. Ramos and H-1975 cells for inoculation were suspended in 50% and 100% […]® (BD Biosciences, biological call culture substrate), respectively. For the Ramos model, the animals received whole body irradiation (4 Gy) before cell inoculation to facilitate the establishment of tumors. When the average tumor volume reached approximately 160 to 320 mm^3, the animals were randomized into treatment groups, with 8-10 mice in each group. ADCs or vehicle (PBS) were administered intravenously on day 0 and then the animals were dosed once every 4 days for 4 to 8 doses. Tumors were measured once or twice weekly and tumor volume was calculated as volume (mm^3)[…](width×width×length)/2.
# H-1975 = assay: In vivo efficacy, H-1975 NSCLC CLX; parameters: species or system mouse; conditions: intravenous, once every 4 days, doses as in value
# Text: as §3
# Ramos = assay: In vivo efficacy, Ramos lymphoma CLX; parameters: species or system mouse; conditions: 1 and 3 mg/kg
# Text: as §3
# [1] = biological target: recombinant cynomolgus monkey 7-EDB-89; assay: SPR binding kinetics to cynomolgus monkey 7-EDB-89
# Description: Binding is detected by surface SPR of laser light refracting from the surface. Analysis of the signal kinetics on-rate (ka) and off-rate (kd), allows the discrimination between non-specific and specific interactions.
# The running and sample buffer used was HBS-EP+ buffer (0.01M HEPES, 0.15M NaCl, 3 mM EDTA, and 0.05% v/v surfactant P20 pH7.4). […] All SPR assays were performed at 25° C. with a data collection rate of 1 Hz using a BIACORE® (Cytiva; surface plasmon resonance (SPR) system) T200 instrument (GE Healthcare). The resulting sensorgrams were double referenced (Myszka, D. G., J. Mol. Recognit., 12:279-284, 1999) using both a control surface and buffer injections. The rate constants were determined by fitting the data to a 1:1 Langmuir model with BIACORE® (Cytiva; surface plasmon resonance (SPR) system) T200 evaluation software v2.0 and the equation KD=kd/ka. Each experiment was run in duplicate and the average KD was determined.
# [2] = WI-38 VA13, unconjugated payload, WI38-VA13, read-out: Avg IC50
# [3] = HT-29, unconjugated payload, HT29, read-out: Avg IC50
# Sequence of recombinant cynomolgus monkey 7-EDB-89 (as listed by the source): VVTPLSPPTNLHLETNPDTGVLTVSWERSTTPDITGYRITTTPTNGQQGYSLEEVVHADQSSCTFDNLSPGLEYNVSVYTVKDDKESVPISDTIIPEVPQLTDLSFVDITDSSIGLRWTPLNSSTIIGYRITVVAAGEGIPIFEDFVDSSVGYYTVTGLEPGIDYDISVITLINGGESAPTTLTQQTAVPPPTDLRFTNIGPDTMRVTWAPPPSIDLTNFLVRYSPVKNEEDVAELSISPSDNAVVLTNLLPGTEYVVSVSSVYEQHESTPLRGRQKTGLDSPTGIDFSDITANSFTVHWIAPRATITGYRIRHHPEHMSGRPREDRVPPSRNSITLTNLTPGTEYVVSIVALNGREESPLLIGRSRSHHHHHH
compound,measurement,setting,value
CC[C@H](C)[C@@H]([C@@H](CC(=O)N1CCC[C@H]1[C@H](OC)[C@@H](C)C(=O)N[C@@H](Cc1ccccc1)c1nccs1)OC)N(C)C(=O)[C@@H](NC(=O)C(C)(C)N)C(C)C [Payload-0101] (H-[Aib]V[Dil][Dolaproine]-Doe),IC50,"WI38-VA13 cells; WI-38 VA13, read-out: Avg IC50",0.392 nM
same,IC50,"HT29 cells; HT-29, read-out: Avg IC50",0.09 nM
Cc1c[nH]c2c1[C@@]13C[C@@H]1CN(C(=O)C14CC5(C(=O)N6C[C@H]7C[C@@]78C6=CC(=O)c6[nH]cc(C)c68)CC15C4)C3=CC2=O (stereo partly drawn) [Payload-0326],IC50,"WI38-VA13 cells; WI-38 VA13, read-out: Avg IC50",< 0.001 nM
same,IC50,"HT29 cells; HT-29, read-out: Avg IC50",0.049 nM
CC[C@H](C)[C@@H]([C@@H](CC(=O)N1CCC[C@H]1[C@H](OC)[C@@H](C)C(=O)N[C@@H](Cc1ccc(N)cc1)c1nccs1)OC)N(C)C(=O)[C@@H](NC(=O)C(C)(C)N(C)C)C(C)C [Payload-1569],IC50,WI38-VA13 cells; [2],0.269 nM
same,IC50,HT29 cells; [3],0.074 nM
CC[C@H](C)[C@@H]([C@@H](CC(=O)N1CCC[C@H]1[C@H](OC)[C@@H](C)C(=O)N[C@@H](Cc1ccc(CS)cc1)c1nccs1)OC)N(C)C(=O)[C@@H](NC(=O)C(C)(C)N(C)C)C(C)C [Payload-4574],IC50,"WI38-VA13 cells; WI-38 VA13, read-out: Avg IC50",3.54 nM
same,IC50,"HT29 cells; HT-29, read-out: Avg IC50",3.65 nM
CC[C@H](C)[C@@H]([C@@H](CC(=O)N1CCC[C@H]1[C@H](OC)[C@@H](C)C(=O)N[C@@H](Cc1ccc(N)cc1)c1nccs1)OC)N(C)C(=O)[C@@H](NC(=O)[C@]1(C)CCCN1C)C(C)C [Payload-9411],IC50,WI38-VA13 cells; [2],0.519 nM
same,IC50,HT29 cells; [3],0.197 nM
"COc1cc2cc(c1Cl)N(C)C(=O)C[C@H](OC(=O)[C@H](C)N(C)C(=O)CCS)[C@]1(C)O[C@H]1[C@H](C)[C@@H]1C[C@@](O)(NC(=O)O1)[C@H](OC)/C=C/C=C(\C)C2 [Payload-DM1, mertansine, reference compound]",IC50,"WI38-VA13 cells; WI-38 VA13, read-out: Avg IC50",3.06 nM
same,IC50,"HT29 cells; HT-29, read-out: Avg IC50",2.63 nM
ADC1: EDB-L19 antibody conventionally conjugated via cysteine residues to auristatin 0101 with vc linker,expression of PDL1,EMT6 syngeneic tumors; treated tumors,increased expression of PDL1
same,infiltration of CD3+ T cells,EMT6 syngeneic tumors; treated tumors vs. vehicle controls,Increased infiltration of CD3+ T cells
same,anti-tumor efficacy,PDX-PAX-12534,tumor regression in a dose dependent manner
same,anti-tumor efficacy,PDX-PAX-13565,tumor regression in a dose dependent manner
same,anti-tumor activity,PDX-NSX-11122; 1 mg/kg,delayed tumor growth
same,anti-tumor activity,PDX-NSX-11122; 3 mg/kg,complete regressions
same,anti-tumor activity,"PDX-NSX-11122; intravenous, once every 4 days, doses as in value, listed as EDB-L19-vc-0101",tumor regression in a dose dependent manner at 3 mg/kg and 1.5 mg/kg; also recorded: greater efficacy as compared to isotype negative control ADCs and ADCs that were generated using a disulfide linker
same,anti-tumor activity,HT29,tumor regression at the 3 mg/kg dose over time
same,anti-tumor activity,H-1975; listed as EDB-L19-vc-0101,"tumor regression in a dose dependent manner at 3 mg/kg, and at as low as 1.5 mg/kg; also recorded: tumor regression at the highest doses evaluated"
same,anti-tumor activity,Ramos,tumor regression at the 3 mg/kg dose in a dose dependent manner
same,Avg IC50,HT29 cells,"15,346 ng/ml"
ADC5: EDB-L19 antibody conjugated to DM1 with disulfide (diS) linker,Avg IC50,"WI38-VA13 cells; WI38-VA13 (EDB+ FN positive), four days, ng/ml of antibody",268 ng/mL
same,Avg IC50,HT29 cells,237 ng/mL
ADC10: EDB-L19 antibody conjugated to auristatin 1569 with vc linker,anti-tumor activity,H-1975,tumor regression in a dose dependent manner
same,Avg IC50,HT29 cells,"5,702 ng/ml"
"Ab1: L19 human monoclonal IgG1 antibody binding EDB; HC SEQ ID NO: 8, LC SEQ ID NO: 15",Kd,[1],188 nM
same,ka,[1],560000 M⁻¹ s⁻¹
same,kd,[1],0.105 s⁻¹
